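A five-concentration, 48-hour dose response in 96-well plates underlies each endpoint, interpolated linearly between surrounding concentrations. Abbreviation: GI50, concentration required for 50% inhibition of growth.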 The source made the active and inactive calls. Rule as the data show it: active = GI50 up to about 1.1 µM and inactive = higher.
Key:
Test in all cases: growth of human tumour cells (NCI), 48 h
[1] = test system: SK-MEL-5
[2] = test system: OVCAR-5
[3] = test system: NCI-H522
[4] = test system: HT-29
[5] = test system: RXF 393
[6] = test system: CCRF-CEM
[7] = test system: HCT-116
[8] = test system: OVCAR-4
[9] = test system: SW-620
[10] = test system: UACC-257
[11] = test system: HOP-62
[12] = test system: SF-295
[13] = test system: M14
[14] = test system: A549
[15] = test system: SNB-19
[16] = test system: MOLT-4
[17] = test system: SK-OV-3

Measured: GI50

COc1ccc2nccc(C3OC(=O)N4CCC(=O)CC34)c2c1 (centres undefined)
inactive: [1] > 100 µM | [2] > 100 µM | [3] 6.84 µM | [4] > 100 µM | [5] > 100 µM | [6] > 100 µM | [7] > 100 µM | [8] > 100 µM | [9] > 100 µM | [10] > 100 µM | [11] > 100 µM | [12] > 100 µM | [13] > 100 µM | [14] > 100 µM | [15] > 100 µM | [16] > 100 µM

O=C(C(=O)c1ccc(Cc2ccc(C(=O)C(=O)c3ccccc3)cc2)cc1)c1ccccc1
inactive: [1] > 100 µM | [2] > 100 µM | [3] > 100 µM | [4] > 100 µM | [17] > 100 µM | [5] > 100 µM | [6] 61.5 µM | [7] > 100 µM | [8] > 100 µM | [9] > 100 µM | [10] > 100 µM | [11] > 100 µM | [12] > 100 µM | [13] > 100 µM | [14] > 100 µM | [15] > 100 µM

Cc1nc(Nc2ccccc2)sc1C(=O)NNc1ccc([N+](=O)[O-])cc1[N+](=O)[O-]
inactive: [1] 25.5 µM | [2] 33.7 µM | [3] 19.5 µM | [4] 35 µM | [17] 40.6 µM | [5] 35.2 µM | [6] 14.2 µM | [7] 42.4 µM | [8] 29.6 µM | [9] 39.9 µM | [10] 43.5 µM | [11] 41.9 µM | [12] 27.5 µM | [13] 38.9 µM | [14] 93.5 µM | [15] 47.1 µM | [16] 24.7 µM

O=C1Nc2ccccc2C12CCCC2
inactive: [1] > 100 µM | [3] > 100 µM | [4] > 100 µM | [17] > 100 µM | [5] > 100 µM | [6] > 100 µM | [7] > 100 µM | [8] > 100 µM | [9] > 100 µM | [10] > 100 µM | [11] > 100 µM | [12] > 100 µM | [13] > 100 µM | [14] > 100 µM | [15] > 100 µM | [16] > 100 µM

CC1=C(C(=O)Nc2ccccc2C)C(/C=C/c2ccccc2)C(C(=O)Nc2ccccc2C)=C(C)N1
inactive: [1] > 100 µM | [2] > 100 µM | [3] 67.1 µM | [4] > 100 µM | [17] > 100 µM | [5] 51.1 µM | [6] 82.6 µM | [7] > 100 µM | [8] 96.4 µM | [9] > 100 µM | [10] > 100 µM | [11] > 100 µM | [12] > 100 µM | [13] > 100 µM | [14] 99.3 µM | [15] > 100 µM

C[C@H](C(=O)C12CC3CC(CC(C3)C1)C2)[C@H](O)c1ccccc1
inactive: [1] 17.6 µM | [2] 17.5 µM | [3] 22 µM | [4] 18.7 µM | [17] 83.9 µM | [5] 20.1 µM | [6] 32.5 µM | [7] 16.1 µM | [8] 44 µM | [9] 47.9 µM | [10] 29.9 µM | [12] 31.9 µM | [13] 29.6 µM | [14] 40.7 µM | [15] 61.1 µM | [16] 23.9 µM

C[C@H](NC(=O)n1c2ccccc2c2ccccc21)C(=O)O
inactive: [1] > 100 µM | [2] > 100 µM | [3] > 100 µM | [4] > 100 µM | [17] > 100 µM | [5] > 100 µM | [6] > 100 µM | [7] > 100 µM | [9] > 100 µM | [10] > 100 µM | [11] > 100 µM | [12] > 100 µM | [14] > 100 µM | [15] > 100 µM | [16] > 100 µM

CN1CCN2c3ccccc3CC(C#N)(C#N)C2C1 (centres undefined)
inactive: [1] > 100 µM | [2] > 100 µM | [3] > 100 µM | [4] > 100 µM | [17] > 100 µM | [5] > 100 µM | [6] > 100 µM | [7] > 100 µM | [8] > 100 µM | [9] > 100 µM | [10] > 100 µM | [12] > 100 µM | [13] > 100 µM | [14] > 100 µM | [15] > 100 µM | [16] > 100 µM

CCOC(=O)C1S/C(=N\c2ccc(OC)c(OC)c2)N=C1C (centres undefined)
inactive: [1] 18.4 µM | [2] 40.2 µM | [3] 17 µM | [4] 18.8 µM | [17] 62.7 µM | [5] 29.9 µM | [6] 22.1 µM | [7] 32.7 µM | [8] 40.2 µM | [9] 42.7 µM | [10] 41.7 µM | [11] 92 µM | [12] 36.5 µM | [13] 46.7 µM | [14] 34.8 µM | [15] 53.5 µM

— ChEMBL document CHEMBL1201862, “PubChem BioAssay data set” (2004)
